Reference: US20260242822A1, “METHODS AND KITS FOR THE IMPROVED FERMENTATIVE PRODUCTION OF A RECOMBINANT VIRUS” (priority 2022, published 2026)

Legend:
suspension HEK293 (CL1) = assay: Lentivirus production in suspension HEK293 (CL1) shake flasks, p24 ELISA; assay type: cell-based, human; conditions: vs untreated control (100%)
Description: Transient transfection of HEK293 to produce Lentivirus was performed with pALDI-Lenti system (Aldevron). […]. The transfection mix consisted of the four-plasmid system, DMEM media and PEI as transfection reagent. The ratio between the used plasmids was 1:1:1:1 and the plasmid DNA PEI ration was 1:3.
The ELISA quantifies structural HIV1 p24 capsid protein amount in cell culture and supernatant samples. It is a quantitative sandwich ELISA method. For titering lentiviral expression HIV1 p24 ELISA Kit ab218268 was used. To discriminate between viral p24 produced by lentivirus and associated p24 produced by HEK293 cells Cell Biolabs Quick Titer™ Kit including LV-Origine/TR30021/Lot #134641F and the Cell Biolabs Reference Standard #310809 was used. The virus pulldown technology ensures detection of lentiviral associated p24 only.
The suspension HEK293 (CL1) experiments with a four-plasmid lentiviral transfection were performed in shake flasks with the same conditions as shown in Table 2. The statistical mean of the control condition was evaluated as 100%.

HEK293 cells (CL1) [1] = assay: rAAV8 yield in suspension HEK293 (CL1) shaker flasks, capsid particle AAV8 ELISA
Description: The commercially available enzyme-linked immunosorbent assay (ELISA; Progen AAV8 titration ELISA kit, cat. No. PRAAV8) uses a monoclonal antibody (ADK8) specific for a conformational epitope on assembled AAV8 capsids. This plate-immobilized antibody captures rAAV-8 particles from the specimen. Captured particles are then detected by the binding of biotinylated anti-AAV8 ADK8 since epitope targeted is repeatedly expressed on the assembled AAV8 capsid. Streptavidin peroxidase and a peroxidase substrate is then used for measuring bound anti-AAV8 and thus the concentration of AAV8 capsid. The color reaction was measured photometrically at 450 nm. The kit contains an rAAV2/8 particle preparation as calibration standard with a labelled rAAV8 particle concentration.

HEK293 cells [2] = assay: rAAV yield in 10 L bioreactor fermentation of HEK293 cells, ddPCR; assay type: cell-based, human; conditions: supernatant
Text: (§1) To test the effect of IFN inhibitor on the rAAV yield in large-scale bioreactor fermentation of HEK293 cells, 10 L bioreactors have been used. The results are shown in FIG. 3A (determination by capsid particlerAAV8 ELISA) and FIG. 3B (determination by ddPCR).

Adherent HEK293 cells [3] = assay: rAAV yield in adherent HEK293 cells in T75 flasks, capsid particle AAV8 ELISA; assay type: cell-based, human; conditions: supernatant, vs control condition
Description: (§2) Adherent HEK293 cell line (Agilent Technologies CAT #240073, Lot #0006218516) was cultivated in T75 flasks in a total volume of 23 mL with DMEM media containing 2% FCS. The cultivation of the cells was performed in an incubator at +37° C. and 5% CO2. 1 mM Ruxolitnib stock solution was prepared by dissolving the solid white powder in DMSO according to the manufacturer's instructions before use and stored at −20° C. During the last passage before transfection Ruxolitinib was added to the cell culture at defined concentrations. Every condition was tested in duplicates. At transfection day a confluence range of 60 to 80% was achieved.
(§3) The statistical mean of the control condition was calculated as 100%.

HEK293 cells (CL1) [4] = assay: rAAV8 yield in suspension HEK293 (CL1) shaker flasks, vector genome ddPCR
HEK293 cells [5] = assay: rAAV yield in 10 L bioreactor fermentation of HEK293 cells, rAAV8 capsid particle ELISA; assay type: cell-based, human; conditions: supernatant, vs negative control without inhibitor
Text: as §1

Adherent HEK293 cells [6] = assay: rAAV yield in adherent HEK293 cells in T75 flasks, ddPCR; assay type: cell-based, human; conditions: supernatant, vs control condition (100%)
Description: as §2, §3

With `N#CC[C@H](C1CCCC1)n1cc(-c2ncnc3[nH]ccc23)cn1` [Ruxolitinib, (3R)-3-cyclopentyl-3-[4-(7H-pyrrolo[2,3-d]pyrimidin-4-yl)pyrazol-1-yl]propanenitrile] the “lentiviral cp titer increase (p24 ELISA)” value (suspension HEK293 (CL1); 5 μM inhibitor) was 40%, the “lentiviral cp titer increase (p24 ELISA)” value (suspension HEK293 (CL1); 10 μM inhibitor) was 81.5% and the “effect on rAAV yield at higher concentrations” value (HEK293 cells (CL1) [1]; concentrations higher than 10 μM) was “reduction of the effect”. The “increase of rAAV yield as determined in cell suspension” value (HEK293 cells (CL1) [1]; optimal concentration 5 μM, vs yield in absence of inhibitor) was “about 3 fold”, the “improvement of rAAV yield by ddPCR” value (HEK293 cells [2]) was “approximately 1.3 fold” and the “capsid particle yield increase (ELISA)” value (Adherent HEK293 cells [3]; 1 μM inhibitor) was 49%. For the same compound, the “capsid particle yield increase (ELISA)” value (Adherent HEK293 cells [3]; 5 μM inhibitor) was 66.5%, the “capsid particle titer increase (ELISA)” value (Adherent HEK293 cells [3]; 10 μM inhibitor) was 62% and the “rAAV yield in the cell suspension” value (HEK293 cells (CL1) [4]; 5 μM ruxolitinib, cell suspension) was “about 2×10^13 vg/L cell culture”. The “rAAV yield in the cell suspension” value (HEK293 cells (CL1) [4]; 10 μM ruxolitinib, cell suspension) was “about 2×10^13 vg/L cell culture”, the “increase of the vector genome (vg) in the cell suspension” value (HEK293 cells (CL1) [4]; 10 μM ruxolitinib, cell suspension, vs negative control without inhibitor) was “about 2 fold” and the “increase of the vector genome (vg) in the supernatant” value (HEK293 cells (CL1) [4]; 10 μM ruxolitinib, supernatant, vs negative control without inhibitor) was “about 2.5 fold”. For the same compound, the “improvement of rAAV8 capsid particles by ELISA” value (HEK293 cells [5]) was “about 1.5 fold”, the “vg yield increase (ddPCR)” value (Adherent HEK293 cells [6]; 1 μM inhibitor) was 48% and the “vg yield increase (ddPCR)” value (Adherent HEK293 cells [6]; 5 μM inhibitor) was 38.5%. For the same compound, the “vg yield increase (ddPCR)” value (Adherent HEK293 cells [6]; 10 μM inhibitor) was 31%.
